Results: patent US12643867B2, “Compositions and uses thereof” (University of Virginia Patent Foundation, priority 2017, dated 2026)

What was measured:
[1] = target: T1, DGKZ (Diacylglycerol kinase zeta) (Homo sapiens, UniProt Q13574); assay: SILAC LC-MS ATP acyl phosphate probe competition, recombinant DGK-HEK293T lysates; type: binding; settings: ATP 1 mM, Ketanserin, Ritanserin 100 μM, RF001 1 mM; for SILAC ratio, DGKZ C1 probe-modified peptide: site C1 (K323); for SILAC ratio, DGKZ DAGKa probe-modified peptide: site DAGKa (K662); for SILAC ratio, DGKZ DAGKc probe-modified peptide: site DAGKc (K500)
T1 construct: expressed in transfected cells; host or cells: SILAC HEK293T
T1 sequence (Q13574 whole entry): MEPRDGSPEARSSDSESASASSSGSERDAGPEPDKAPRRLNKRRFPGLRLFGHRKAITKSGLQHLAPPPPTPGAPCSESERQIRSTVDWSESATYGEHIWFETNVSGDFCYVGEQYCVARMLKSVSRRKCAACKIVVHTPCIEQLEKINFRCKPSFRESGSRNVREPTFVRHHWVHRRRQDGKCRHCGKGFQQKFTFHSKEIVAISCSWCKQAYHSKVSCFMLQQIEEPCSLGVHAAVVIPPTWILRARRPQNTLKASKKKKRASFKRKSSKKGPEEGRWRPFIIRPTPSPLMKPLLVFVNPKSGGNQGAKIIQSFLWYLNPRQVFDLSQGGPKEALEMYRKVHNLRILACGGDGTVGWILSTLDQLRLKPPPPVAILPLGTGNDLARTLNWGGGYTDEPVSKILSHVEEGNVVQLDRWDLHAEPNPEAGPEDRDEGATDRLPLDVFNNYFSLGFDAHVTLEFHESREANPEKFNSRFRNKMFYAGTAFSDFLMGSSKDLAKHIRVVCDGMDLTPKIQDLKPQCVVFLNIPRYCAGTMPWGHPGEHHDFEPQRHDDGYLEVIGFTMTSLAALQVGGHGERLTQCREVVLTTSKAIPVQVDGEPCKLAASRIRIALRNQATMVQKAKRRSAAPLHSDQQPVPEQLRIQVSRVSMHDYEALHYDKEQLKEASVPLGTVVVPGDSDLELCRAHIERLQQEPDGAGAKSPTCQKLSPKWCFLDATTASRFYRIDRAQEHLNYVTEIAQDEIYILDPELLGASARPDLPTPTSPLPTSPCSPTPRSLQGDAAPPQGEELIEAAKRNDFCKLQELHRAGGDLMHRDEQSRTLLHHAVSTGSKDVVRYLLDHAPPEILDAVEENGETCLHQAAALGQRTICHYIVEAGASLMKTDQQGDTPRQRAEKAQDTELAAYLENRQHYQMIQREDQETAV
Source text: (§1) Recombinant DGK proteins were produced by transient transfection of HEK293T cells with recombinant DNA. pDONR223-DGKK was a gift from William Hahn & David Root (Addgene plasmid #23487). pCSF107mT-GATEWAY-3′-FLAG was a gift from Todd Stukenberg (Addgene plasmid #67619). pCSF107mT-DGKK-FLAG construct was generated by recombination of the Addgene plasmids using the Gateway cloning system (Invitrogen). All other vectors were gifted to Dr. Kevin Lynch (University of Virginia, School of Medicine) by Dr. Kaoru Goto (Yamagata University, School of Medicine) and Dr. Fumio Sakane (Chiba University) and were kindly shared with us: pcDNA3-FLAG-DGKA (rat), pCMV-Tag2B-FLAG-DGKQ (human), pcDNA3-DGKE-3×Flag (human), and pCMV-SPORT6-HA-DGKZ (human). HEK293T cells were plated at a concentration of 400,000 cells in complete DMEM and grown to 50-60% confluency. A polyethyleneimine (PEI) stock solution was prepared (1 mg/mL, pH 7.4) and filter sterilized. Serum-free DMEM (600 μL) was mixed gently with 2.6 μg DNA and 20 μL of sterile PEI (1 mg/mL, pH 7.4) in a sterile microfuge tube. Mixtures were incubated for 30 min at 25° C. The mixture was then added drop-wise to each 10 cm^2 plate, rocked back and forth to mix, and placed back in the incubator. Cell pellets were harvested after two full days of growth, snap-frozen in liquid N2, and stored at −80° C. until use. Recombinant proteins were produced by transient transfection in SILAC HEK293T cells using the procedure described above, except that cells were plated at a concentration of 1×10^6 cells per 10 cm^2 plate and grown to ˜70% confluency prior to introducing transfection mixture.
(§2) Proteomes were diluted to 2 mg/ml in kinase buffer. The light and heavy proteomes (0.5 mg, 250 μL total reaction volume) were pre-treated with vehicle or compound, respectively (5 μL, DMSO (light) or 50× stock in DMSO (heavy)), mixed gently, and incubated at 25° C. for 30 min. […] After incubation, matched light and heavy proteomes were transferred and mixed in a 1:1 ratio in a two-dram vial containing 4:1:3 MeOH/CHCl3/H2O (2 mL MeOH, 500 AL CHCl3, 1.5 mL H2O) for extraction of proteins to remove excess probe, quickly vortexed, and centrifuged at 1,400×g for 3 min to pellet protein. Organic and aqueous layers were removed using a Pasteur pipette, and the protein pellet was transferred to a screw-top tube in 600 μL MeOH. A second extraction was performed by adding CHCl3 (150 μL) and H2O (600 μL) to each sample, vortexed, and centrifuged at 1,400×g for 3 min to pellet protein. Organic and aqueous layers were removed by pipetting. MeOH added to pellet (600 μL) and pellets were re-suspended by sonication (3×1 sec pulse, 20% amplitude) for a final extraction. Samples were then centrifuged at 17,000×g for 5 min to pellet protein and MeOH was removed by pipetting. The pellets were re-suspended in 10 M urea/25 mM ammonium bicarbonate ([…]), brought to a final volume of 1 mL with 25 mM ammonium bicarbonate, reduced with 10 mM DTT for 15 min at 65° C. allowed to cool, and then alkylated with 40 mM iodoacetamide for 30 min at 25° C. in the dark. To desalt the samples, each was transferred to a two-dram glass vial, and to the vial 4:1:2 MeOH/CHCl3/H2O (2 mL MeOH, 500 AL CHCl3, 1 mL H2O) was added. The vials were vortexed quickly, spun at 1.400×g for 3 min to pellet protein, and aqueous and organic layers were removed using a Pasteur pipette. The resulting protein pellet was transferred to a screw-top tube in 600 μL MeOH, and then CHCl3 (150 μL) and HO (600 μL) were added to extract protein a second time. The samples were vortexed quickly, centrifuged at 1,400×g to pellet protein, and the aqueous and organic layers were removed by pipetting. Resulting protein pellet was suspended in MeOH (600 μL) via sonication (3×1 sec pulse, 20% amplitude), centrifuged at 17,000×g for 5 min to pellet protein, and MeOH removed by pipetting. […]

[2] = target: T2, DGKQ (Diacylglycerol kinase theta) (Homo sapiens, UniProt P52824); assay: as above; type: binding; settings: ATP 1 mM, Ketanserin, Ritanserin 100 μM, RF001 1 mM; for SILAC ratio, DGKQ C1 probe-modified peptide: site C1 (K202); for SILAC ratio, DGKQ DAGKa probe-modified peptide: site DAGKa (K768); for SILAC ratio, DGKQ DAGKc probe-modified peptide: site DAGKc (K596)
T2 construct: expressed in transfected cells; host or cells: SILAC HEK293T
T2 sequence (P52824 1-942): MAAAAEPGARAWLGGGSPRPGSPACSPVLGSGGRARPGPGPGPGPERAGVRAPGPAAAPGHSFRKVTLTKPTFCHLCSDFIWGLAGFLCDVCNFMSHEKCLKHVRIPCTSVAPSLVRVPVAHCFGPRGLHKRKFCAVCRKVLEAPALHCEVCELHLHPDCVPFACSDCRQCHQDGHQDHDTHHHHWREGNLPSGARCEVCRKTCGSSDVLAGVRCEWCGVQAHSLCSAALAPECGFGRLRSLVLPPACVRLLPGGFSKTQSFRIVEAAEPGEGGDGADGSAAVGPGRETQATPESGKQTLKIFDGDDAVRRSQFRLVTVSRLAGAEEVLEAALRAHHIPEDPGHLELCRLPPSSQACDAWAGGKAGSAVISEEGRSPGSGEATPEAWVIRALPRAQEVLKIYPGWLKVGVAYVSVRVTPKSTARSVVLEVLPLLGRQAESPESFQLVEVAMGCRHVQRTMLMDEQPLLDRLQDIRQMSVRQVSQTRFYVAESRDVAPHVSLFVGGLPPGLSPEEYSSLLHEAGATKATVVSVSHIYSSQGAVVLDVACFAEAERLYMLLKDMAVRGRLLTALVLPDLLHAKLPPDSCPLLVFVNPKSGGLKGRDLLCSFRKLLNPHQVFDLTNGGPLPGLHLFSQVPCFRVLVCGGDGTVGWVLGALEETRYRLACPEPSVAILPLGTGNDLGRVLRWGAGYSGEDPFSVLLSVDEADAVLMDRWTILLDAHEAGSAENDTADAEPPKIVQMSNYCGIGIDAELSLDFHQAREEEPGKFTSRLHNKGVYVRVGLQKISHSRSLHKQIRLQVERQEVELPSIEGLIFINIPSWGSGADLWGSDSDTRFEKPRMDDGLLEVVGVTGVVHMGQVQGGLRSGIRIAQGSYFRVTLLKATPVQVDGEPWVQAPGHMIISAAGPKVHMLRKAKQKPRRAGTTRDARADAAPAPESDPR
Source text: as §1, §2

Row | SILAC ratio, DGKZ C1 probe-modified peptide [1] | SILAC ratio, DGKZ DAGKa probe-modified peptide [1] | SILAC ratio, DGKZ DAGKc probe-modified peptide [1] | SILAC ratio, DGKQ C1 probe-modified peptide [2] | SILAC ratio, DGKQ DAGKa probe-modified peptide [2] | SILAC ratio, DGKQ DAGKc probe-modified peptide [2] | Compound
1 | 1.1 | 1.1 | 0.9 | 0.7 | 1.2 | 0.9 | Fc1ccc(C(=C2CCNCC2)c2ccc(F)cc2)cc1 [RF001, 4-(Bis(4-fluorophenyl)methylene) piperidine]
2 | 1.3 | 1.4 | 1.5 | 0.9 | 1.1 | 1.2 | O=C(c1ccc(F)cc1)C1CCN(CCn2c(=O)[nH]c3ccccc3c2=O)CC1 [Ketanserin]

Row | Compound | SILAC ratio, DGKZ C1 probe-modified peptide [1] | SILAC ratio, DGKZ DAGKa probe-modified peptide [1] | SILAC ratio, DGKZ DAGKc probe-modified peptide [1] | SILAC ratio, DGKQ C1 probe-modified peptide [2] | SILAC ratio, DGKQ DAGKa probe-modified peptide [2] | SILAC ratio, DGKQ DAGKc probe-modified peptide [2]
3 | Cc1nc2sccn2c(=O)c1CCN1CCC(=C(c2ccc(F)cc2)c2ccc(F)cc2)CC1 [Ritanserin] | 1.4 | 1.8 | 1.2 | 1.3 | 1.4 | 1.1
